According to patent US20100004187A1 (priority 2008, published 2010):
Read-outs that look alike come from different tables or passages of the source.

Key:
[1] = biological target: CorA of Methanococcus jannaschii (Methanocaldococcus jannaschii, UniProt Q58439); details: cited from earlier work
[2] = test system: Francisella tularensis subspecies Novicida; type: cell-based
[3] = mouse, in vivo
lawn of E. coli = type: cell-based; details: 1.0 tet/0.78 Cohex and 2.0 tet/1.6 mg Cohex disk pairings, overnight at 37° C.
bacterial growth [4] = details: cited from earlier work
TolC (E. coli) = TolC (E. coli) (Escherichia coli, UniProt P02930); details: isothermal titration calorimetry; cited from earlier work
Francisella philomiragia = type: cell-based
MgtB Mg transporter = MgtB Mg transporter (Salmonella typhimurium, UniProt P22036); details: cited from earlier work
bacterial growth [5] = type: cell-based
[6] = test system: S. typhimurium strain in which CorA was the only functional Mg2+ transporter; details: cited from earlier work
[7] = biological target: CorA of Salmonella typhimurium (Salmonella typhimurium, UniProt P0A2R8); details: cited from earlier work
CorA of Salmonella typhimurium, sequence (P0A2R8 whole entry): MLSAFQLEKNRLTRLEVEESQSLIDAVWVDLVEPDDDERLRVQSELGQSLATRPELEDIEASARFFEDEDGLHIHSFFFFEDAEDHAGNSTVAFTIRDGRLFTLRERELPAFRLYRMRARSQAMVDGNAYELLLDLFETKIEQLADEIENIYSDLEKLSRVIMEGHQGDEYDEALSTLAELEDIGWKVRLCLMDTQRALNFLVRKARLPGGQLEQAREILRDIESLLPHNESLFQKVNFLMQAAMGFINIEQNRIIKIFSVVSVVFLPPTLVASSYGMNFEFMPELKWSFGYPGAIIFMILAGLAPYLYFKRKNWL

TolC (E. coli), sequence (P02930 23-493): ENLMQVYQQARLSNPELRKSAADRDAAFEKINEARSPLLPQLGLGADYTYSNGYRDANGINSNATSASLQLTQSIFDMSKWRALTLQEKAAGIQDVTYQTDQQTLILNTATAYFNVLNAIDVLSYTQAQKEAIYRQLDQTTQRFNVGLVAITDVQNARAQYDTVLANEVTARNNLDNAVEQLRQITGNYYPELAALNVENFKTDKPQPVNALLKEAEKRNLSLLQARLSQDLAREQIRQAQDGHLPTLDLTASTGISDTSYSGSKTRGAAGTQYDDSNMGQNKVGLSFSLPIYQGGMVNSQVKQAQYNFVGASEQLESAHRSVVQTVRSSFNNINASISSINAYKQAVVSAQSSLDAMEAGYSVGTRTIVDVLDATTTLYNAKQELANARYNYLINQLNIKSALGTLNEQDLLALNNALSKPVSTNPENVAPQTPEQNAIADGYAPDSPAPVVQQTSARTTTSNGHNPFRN
MgtB Mg transporter, sequence (P22036 whole entry): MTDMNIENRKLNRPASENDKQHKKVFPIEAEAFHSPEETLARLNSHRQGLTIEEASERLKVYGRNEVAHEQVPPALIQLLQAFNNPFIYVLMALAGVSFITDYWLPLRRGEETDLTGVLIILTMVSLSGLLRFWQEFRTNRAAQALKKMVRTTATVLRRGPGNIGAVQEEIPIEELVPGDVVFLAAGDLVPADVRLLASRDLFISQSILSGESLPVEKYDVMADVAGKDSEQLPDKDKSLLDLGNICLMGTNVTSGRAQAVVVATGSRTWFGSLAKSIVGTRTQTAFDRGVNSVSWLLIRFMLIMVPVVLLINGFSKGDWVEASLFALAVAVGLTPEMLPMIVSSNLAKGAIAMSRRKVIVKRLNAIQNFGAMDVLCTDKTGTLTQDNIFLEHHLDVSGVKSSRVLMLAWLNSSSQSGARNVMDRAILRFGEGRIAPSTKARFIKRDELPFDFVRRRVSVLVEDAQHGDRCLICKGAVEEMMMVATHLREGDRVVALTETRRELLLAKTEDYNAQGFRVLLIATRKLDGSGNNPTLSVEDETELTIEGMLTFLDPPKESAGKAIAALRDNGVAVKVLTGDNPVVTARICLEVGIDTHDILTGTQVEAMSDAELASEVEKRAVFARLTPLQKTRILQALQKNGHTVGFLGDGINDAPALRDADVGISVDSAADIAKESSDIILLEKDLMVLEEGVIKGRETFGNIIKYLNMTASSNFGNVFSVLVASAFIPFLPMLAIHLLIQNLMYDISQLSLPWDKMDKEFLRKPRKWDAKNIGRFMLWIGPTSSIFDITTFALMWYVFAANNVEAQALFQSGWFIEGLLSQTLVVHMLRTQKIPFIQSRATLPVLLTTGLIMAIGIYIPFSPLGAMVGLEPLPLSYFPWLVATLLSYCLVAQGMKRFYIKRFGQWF
CorA of Methanococcus jannaschii, sequence (Q58439 whole entry): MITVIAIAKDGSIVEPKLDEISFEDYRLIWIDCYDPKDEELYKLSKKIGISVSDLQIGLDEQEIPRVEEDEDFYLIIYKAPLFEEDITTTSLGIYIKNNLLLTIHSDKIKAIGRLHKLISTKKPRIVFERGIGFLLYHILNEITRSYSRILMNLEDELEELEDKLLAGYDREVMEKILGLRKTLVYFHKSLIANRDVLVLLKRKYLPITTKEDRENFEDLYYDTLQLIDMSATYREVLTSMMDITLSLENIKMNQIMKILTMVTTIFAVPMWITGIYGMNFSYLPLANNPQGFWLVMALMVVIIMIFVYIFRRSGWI

hexamminecobalt (III) chloride [Cohex]
inhibition of 63Ni2+ uptake [1]: inhibited | kind of inhibition of the bacterial growth [2]: bacteriostatic rather than bacteriocidal | toxicity to mice [3]: not to be highly toxic | CC50 (BHK cells): ~3200 µM | zone of inhibition, interaction with tetracycline (lawn of E. coli): synergistic effect | effect on bacterial growth (bacterial growth [4]): prevents bacterial growth at micromolar concentrations | Cohex ions bound per trimeric TolC (TolC (E. coli)): ~1 | kind of inhibition of the bacterial growth (Francisella philomiragia): bacteriostatic rather than bacteriocidal | inhibition of alternate pathways of Mg2+ transport (MgtB Mg transporter): does not inhibit | effect of the presence of Cohex on potency of the antibiotic drugs (bacterial growth [5]): increased the potency of the drugs up to about an order of magnitude | effect on bacterial growth (bacterial growth [5]): no effect on bacterial growth | inhibition of growth [6]: inhibited the growth | inhibition of 63Ni2+ uptake [7]: inhibited | Ki ([7]; corresponding to the IC50, species not given): 0.5 µM
